# Test results published in paper PMC9983021, “Novel GluN2B-Selective NMDA Receptor Negative Allosteric Modulator Possesses Intrinsic Analgesic Properties and Enhances Analgesia of Morphine in a Rodent Tail Flick Pain Model” (ACS Chemical Neuroscience, 2023).
# Where two headings read alike, the source gives them in different places.
# Assays:
# [1] = molecular target: diheteromeric human GluN1/GluN2B/GluN2B (h2B/h2B) (Homo sapiens, UniProt Q05586+Q13224); assay: Concentration-inhibition curves, oocytes
# [2] = Determination of plasma and brain concentrations; type: in vivo; details: Sprague-Dawley, rat, ip, male rats, 60 mg/kg i.p.
# Experimental: Brain concentrations were measured from whole forebrain homogenate at each time point.
# Trunk blood was collected in K-EDTA tubes and then spun in a microcentrifuge at 3500 rpm for 10 min to separate plasma, which was then transferred to a clean tube and frozen on dry ice. To prepare forebrain tissue samples, the whole brain was removed from the skull, the cerebellum and brainstem cut away, the meninges were removed, and the forebrain was then rinsed with ice-cold normal saline, after which it was blotted dry with filter paper and weighed on a microbalance. To each forebrain 2.5 mL of ice-cold 50 mM K-phosphate buffer (pH 7.4) was then added and the samples homogenized with a hand-held homogenizer. The brain homogenates were then transferred to clean tubes (2 per brain) and frozen on dry ice.
# Plasma and brain homogenate samples were analyzed by LC-MS/MS operating in multiple reaction monitor mode (MRM) by Ricerca Biosciences (Dublin, OH). […] The amount of parent compound in each plasma or brain sample was calculated by comparing the response of the analyte in the sample to that of a standard curve (Ricerca, OH).
# in vivo = assay: in vivo; design: species or system mice; details: C57BL/6J, mouse, ip
# Experimental: Some NMDAR antagonists can impact locomotor behavior in animals.[84]−[86] Lower doses have minimal impact while high doses can have anesthetic action that can produce complete immobility. We evaluated this potential side effect in a locomotor assay using a range of doses of EU93-108.
# For both male and female mice, n = 8 mice per group were used. Locomotor activity was assessed at 3, 5, 7, 10, 20, and 30 mg/kg EU93-108. Mice were brought to the experiment room the night before and given ad libitum access to food and water. Each mouse was given an i.p. injection of the appropriate dose or vehicle 30 min prior to starting the locomotor boxes (Versamax420 Animal Activity Monitoring System, AccuScan Instruments, Inc., Columbus, OH). Movements of the mice were tracked for 1 h then the mice were placed back in their cages. Data were analyzed using one-way ANOVA and Dunnett’s post hoc test for multiple comparisons where each group was compared to vehicle. Data are presented as mean ± SEM.
# D3 = D3 (Homo sapiens, UniProt P35462); assay: Radioligand binding assay (NIMH PDSP)
# Experimental: (§1) Compound EU93-108 was also tested for inhibition of binding of probes to a range of GPCRs and other targets (Table 4 and Supporting Table S4). […] EU93-108 produced significant displacement of binding probes for the 5-HT2 receptors and α-1-adrenergic receptors, as well as D3, H1, and σ1 receptors. Concentration–response binding competition curves for these targets were used to determine Ki values (Table 4). Given that the brain concentration of EU93-108 achieved 30 min post i.p. injection is 18 μM (Figure 6), the doses that yield our desired antinociceptive effects may engage some of the receptors listed in Table 4.
# (§2) Conventional competition and saturation radioligand binding assays were used to determine the affinities of reference standards and EU93-108. Experiments were carried out by the NIMH Psychoactive Drug Screening Program (PDSP) and were performed as previously described.[123]
# (§3) The detailed experimental protocols for the radioligand assays are available on the NIMH PDSP website at https://pdsp.unc.edu/pdspweb/content/UNC-CH%20Protocol%20Book.pdf.
# (§4) Receptor Mean % Receptor Mean % Receptor Mean %
# (§5) Inhibition Inhibition Inhibition
# (§6) Supplemental Table S4. Off-Target Actions of EU93-108: Primary GPCR Screen. Cloned human molecular targets were individually expressed and submitted to molecular target-based screening with initial screens performed at a final concentration of 10 µM in quadruplicate. Complete protocols for the assays have been previously published (Besnard J et al. 2012). Where inhibition greater than 50% was measured, secondary screens were performed wherein Ki values were calculated (see Table 4).
# 5-HT2C = molecular target: T1, 5-HT2C (Homo sapiens, UniProt P28335); assay: Radioligand binding assay (NIMH PDSP)
# T1 sequence (P28335 33-458): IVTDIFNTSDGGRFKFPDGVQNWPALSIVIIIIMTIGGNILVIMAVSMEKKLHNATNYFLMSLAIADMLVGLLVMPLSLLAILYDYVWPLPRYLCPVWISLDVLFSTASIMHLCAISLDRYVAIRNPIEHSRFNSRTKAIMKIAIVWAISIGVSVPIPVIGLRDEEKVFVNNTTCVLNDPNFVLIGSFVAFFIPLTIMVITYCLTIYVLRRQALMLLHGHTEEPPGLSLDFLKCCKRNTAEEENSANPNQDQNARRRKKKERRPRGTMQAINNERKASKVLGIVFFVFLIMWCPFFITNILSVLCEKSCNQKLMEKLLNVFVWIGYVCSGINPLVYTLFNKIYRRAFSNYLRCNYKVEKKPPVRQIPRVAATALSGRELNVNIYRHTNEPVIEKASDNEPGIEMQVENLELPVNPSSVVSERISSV
# Experimental: as §1, §2, §3, §4, §5, §6
# Alpha2A (α2A) = molecular target: T2, Alpha2A (α2A) (Homo sapiens, UniProt P08913); assay: Radioligand binding assay (NIMH PDSP)
# T2 sequence (P08913 1-465): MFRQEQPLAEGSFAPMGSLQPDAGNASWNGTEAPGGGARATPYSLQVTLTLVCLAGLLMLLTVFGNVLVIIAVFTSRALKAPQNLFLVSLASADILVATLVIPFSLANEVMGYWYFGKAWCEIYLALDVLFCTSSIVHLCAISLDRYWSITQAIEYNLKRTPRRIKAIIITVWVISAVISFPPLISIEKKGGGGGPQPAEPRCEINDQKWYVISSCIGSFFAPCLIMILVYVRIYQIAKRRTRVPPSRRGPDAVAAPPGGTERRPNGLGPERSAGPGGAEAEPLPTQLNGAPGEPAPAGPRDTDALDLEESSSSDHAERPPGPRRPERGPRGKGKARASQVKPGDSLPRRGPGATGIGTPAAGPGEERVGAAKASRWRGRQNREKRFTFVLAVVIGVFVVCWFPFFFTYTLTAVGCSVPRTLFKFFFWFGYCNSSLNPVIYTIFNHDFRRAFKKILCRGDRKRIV
# Experimental: as §1, §2, §3, §4, §5, §6
# [3] = primary screen, 10 µM, quadruplicate
# [4] = ratio of Ki to the IC50 for EU93-108 (555 nM) at GluN2B
# [5] = secondary screen, binding competition curve
# Sequence of diheteromeric human GluN1/GluN2B/GluN2B (h2B/h2B) (Q13224 27-1484, other chains not shown): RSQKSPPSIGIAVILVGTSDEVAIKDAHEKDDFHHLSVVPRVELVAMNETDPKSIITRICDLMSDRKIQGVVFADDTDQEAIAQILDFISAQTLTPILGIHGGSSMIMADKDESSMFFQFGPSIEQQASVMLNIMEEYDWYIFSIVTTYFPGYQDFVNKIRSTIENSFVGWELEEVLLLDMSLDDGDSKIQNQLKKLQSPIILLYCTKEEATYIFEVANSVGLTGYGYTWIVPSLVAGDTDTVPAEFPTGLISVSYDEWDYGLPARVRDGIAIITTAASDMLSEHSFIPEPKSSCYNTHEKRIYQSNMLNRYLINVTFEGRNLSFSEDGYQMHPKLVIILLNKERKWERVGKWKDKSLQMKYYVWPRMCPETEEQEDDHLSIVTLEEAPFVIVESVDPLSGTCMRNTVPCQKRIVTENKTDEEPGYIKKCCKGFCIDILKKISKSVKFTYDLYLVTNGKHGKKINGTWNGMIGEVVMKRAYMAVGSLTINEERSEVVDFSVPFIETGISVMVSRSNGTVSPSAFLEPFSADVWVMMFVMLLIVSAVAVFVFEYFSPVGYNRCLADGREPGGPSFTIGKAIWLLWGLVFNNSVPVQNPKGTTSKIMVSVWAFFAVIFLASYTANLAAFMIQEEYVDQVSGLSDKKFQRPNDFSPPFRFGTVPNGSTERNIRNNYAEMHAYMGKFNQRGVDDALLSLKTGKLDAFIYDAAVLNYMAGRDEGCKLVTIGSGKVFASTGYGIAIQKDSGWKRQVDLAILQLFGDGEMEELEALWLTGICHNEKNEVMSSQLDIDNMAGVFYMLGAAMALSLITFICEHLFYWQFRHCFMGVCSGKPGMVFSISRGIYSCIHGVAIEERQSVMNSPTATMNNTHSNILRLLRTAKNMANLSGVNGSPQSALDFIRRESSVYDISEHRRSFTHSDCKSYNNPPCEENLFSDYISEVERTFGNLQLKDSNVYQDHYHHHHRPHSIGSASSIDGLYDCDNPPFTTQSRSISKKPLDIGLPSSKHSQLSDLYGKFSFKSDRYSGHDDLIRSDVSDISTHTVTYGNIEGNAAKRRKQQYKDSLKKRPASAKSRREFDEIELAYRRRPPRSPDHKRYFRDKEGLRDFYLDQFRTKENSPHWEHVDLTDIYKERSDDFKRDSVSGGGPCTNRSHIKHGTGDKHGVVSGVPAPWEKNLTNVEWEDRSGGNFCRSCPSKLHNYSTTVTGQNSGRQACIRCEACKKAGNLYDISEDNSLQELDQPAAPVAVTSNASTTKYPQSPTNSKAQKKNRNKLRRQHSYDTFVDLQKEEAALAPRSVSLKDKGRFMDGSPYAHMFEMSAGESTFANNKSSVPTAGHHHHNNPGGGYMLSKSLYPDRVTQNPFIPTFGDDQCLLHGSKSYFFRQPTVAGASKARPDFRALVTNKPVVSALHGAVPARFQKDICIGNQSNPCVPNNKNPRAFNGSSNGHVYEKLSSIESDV
# Sequence of D3 (P35462 whole entry): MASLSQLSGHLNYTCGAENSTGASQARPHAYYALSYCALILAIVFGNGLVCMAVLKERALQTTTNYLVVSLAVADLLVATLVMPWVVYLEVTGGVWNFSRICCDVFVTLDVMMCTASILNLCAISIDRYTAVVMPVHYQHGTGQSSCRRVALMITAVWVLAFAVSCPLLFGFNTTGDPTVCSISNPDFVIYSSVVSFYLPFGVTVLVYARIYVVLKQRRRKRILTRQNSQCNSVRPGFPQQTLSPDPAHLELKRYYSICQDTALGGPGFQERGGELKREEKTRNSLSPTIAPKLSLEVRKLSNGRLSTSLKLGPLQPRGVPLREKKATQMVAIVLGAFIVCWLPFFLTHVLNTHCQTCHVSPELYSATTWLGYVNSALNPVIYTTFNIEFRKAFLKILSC
smiles,measurement,setting,value
"CS(=O)(=O)Nc1ccc(OC[C@@H](O)CN2CCN(c3ccc(F)c(F)c3)CC2)cc1 [EU93-108, (S)-N-(4-(3-(4-(3,4-Difluorophenyl)piperazin-1-yl)-2-hydroxypropoxy)phenyl)methanesulfonamide]",IC50,[1],261 nM
same,residual current remaining at 10 μM EU93-108,"[1]; 10 μM, % of maximal response, n = 10",12%
same,nH,"[1]; Hill slope factor of the inhibition curve, Table S1",-1.16
same,Ymin,"[1]; residual response, Table S1, N = 10",12.0
same,Kp at 60 min,"[2]; brain (forebrain homogenate) / plasma, from Cmax, read-out: brain-to-plasma ratio",0.6
same,Cmax,"[2]; brain (whole forebrain homogenate), whole forebrain homogenate, read-out: Cmax in brain",18 µM
same,half-life,[2]; plasma and brain (forebrain homogenate),> 240 min
same,Tmax,"[2]; plasma and brain (forebrain homogenate), read-out: time of peak concentration (Tmax) (converted)",30 min
same,Cmax,"[2]; plasma, read-out: Cmax in plasma",30 µM
same,ED50 at 1 h,in vivo; female,15.2 mg/kg
same,ED50 at 1 h,in vivo; male,13.5 mg/kg
same,inhibition at 10 µM,D3; [3],67.1%
same,Ki/IC50 of EU93-108,D3; [4],0.34
same,Ki,D3; [5],190 nM
same,inhibition at 10 µM,5-HT2C; [3],71.3%
same,Ki/IC50 of EU93-108,5-HT2C; [4],3.28
same,Ki,5-HT2C; [5],1820 nM
same,inhibition at 10 µM,Alpha2A (α2A); [3],77.7%
same,Ki/IC50 of EU93-108,Alpha2A (α2A); [4],2.07
same,Ki,Alpha2A (α2A); [5],1150 nM
